Reference: the supplement of paper PMC10307832

Legend:
Assay in all cases: relative viability (nuclei count vs DMSO), 5 days (fraction); higher = more cells survive
NCI-H1993 = system: NCI-H1993
In short: (§1)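 Lung cancer cell lines, seeded in 1536-well plates, were treated the following day by pin tool with a single drug or with five library-drug doses (not always all listed) in √10 steps on top of a fixed anchor-drug dose. Cells were fixed and nuclei stained in one step after 5 days, and nuclei were counted. Relative viability is the nuclei count for treated wells divided by that for vehicle wells, reported as medians of duplicate plates.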

NCI-H2087 = system: NCI-H2087
In short: as §1

HCC-827 = system: HCC-827
In short: as §1

HOP-62 = system: HOP-62
In short: as §1

PC-3 [JPC-3] = system: PC-3 [JPC-3]
In short: as §1

SK-MES-1 = system: SK-MES-1
In short: as §1

BEN = system: BEN
In short: as §1

LC-2-ad = system: LC-2-ad
In short: as §1

HARA = system: HARA
In short: as §1

COR-L23 = system: COR-L23
In short: as §1

LU99A = system: LU99A
In short: as §1

LXF-289 = system: LXF-289
In short: as §1

Compound `Cc1cnc(-c2cnc(NCCNc3ccc(C#N)cn3)nc2-c2ccc(Cl)cc2Cl)[nH]1` + CC1(C)CCC(c2ccc(Cl)cc2)=C(CN2CCN(c3ccc(C(=O)NS(=O)(=O)c4ccc(N[C@H](CCN5CCOCC5)CSc5ccccc5)c(S(=O)(=O)C(F)(F)F)c4)cc3)CC2)C1 [Navitoclax] (partner 0.5 µM) has a relative viability (NCI-H1993; first compound 0.08 µM) of 0.976, a relative viability (NCI-H1993; first compound 0.253 µM) of 0.906 and a relative viability (NCI-H1993; first compound 0.8 µM) of 0.996. For the same compound, the relative viability (NCI-H1993; first compound 2.53 µM) was 0.882, the relative viability (NCI-H2087; first compound 0.08 µM) was 0.88 and the relative viability (NCI-H2087; first compound 0.253 µM) was 0.966. For the same compound, the relative viability (NCI-H2087; first compound 0.8 µM) was 1.03, the relative viability (NCI-H2087; first compound 2.53 µM) was 0.967 and the relative viability (HCC-827; first compound 0.08 µM) was 1.04. For the same compound, the relative viability (HCC-827; first compound 0.8 µM) was 1.05, the relative viability (HCC-827; first compound 2.53 µM) was 1.05 and the relative viability (HOP-62; first compound 0.08 µM) was 1.13. For the same compound, the relative viability (HOP-62; first compound 0.253 µM) was 0.843, the relative viability (HOP-62; first compound 0.8 µM) was 0.997 and the relative viability (HOP-62; first compound 2.53 µM) was 0.768. For the same compound, the relative viability (PC-3 [JPC-3]; first compound 0.08 µM) was 0.81, the relative viability (PC-3 [JPC-3]; first compound 0.253 µM) was 0.71 and the relative viability (PC-3 [JPC-3]; first compound 0.8 µM) was 0.809. For the same compound, the relative viability (PC-3 [JPC-3]; first compound 2.53 µM) was 0.729, the relative viability (SK-MES-1; first compound 0.08 µM) was 1.19 and the relative viability (SK-MES-1; first compound 0.253 µM) was 1.14. It also gave a relative viability (SK-MES-1; first compound 2.53 µM) of 1.14, a relative viability (BEN; first compound 0.08 µM) of 0.0701 and a relative viability (BEN; first compound 0.253 µM) of 0.0548. The relative viability (BEN; first compound 0.8 µM) was 0.0658, the relative viability (BEN; first compound 2.53 µM) was 0.0673 and the relative viability (LC-2-ad; first compound 0.08 µM) was 0.53. For the same compound, the relative viability (LC-2-ad; first compound 0.8 µM) was 0.452, the relative viability (LC-2-ad; first compound 2.53 µM) was 0.5 and the relative viability (HARA; first compound 0.08 µM) was 1.13. It also gave a relative viability (HARA; first compound 0.253 µM) of 1.12, a relative viability (HARA; first compound 0.8 µM) of 1.16 and a relative viability (HARA; first compound 2.53 µM) of 1.19. The relative viability (COR-L23; first compound 0.08 µM) was 1.07, the relative viability (COR-L23; first compound 0.253 µM) was 1.03 and the relative viability (COR-L23; first compound 0.8 µM) was 1.09. It also gave a relative viability (COR-L23; first compound 2.53 µM) of 1.06, a relative viability (LU99A; first compound 0.08 µM) of 0.858 and a relative viability (LU99A; first compound 0.253 µM) of 0.808. The relative viability (LU99A; first compound 0.8 µM) was 0.794, the relative viability (LU99A; first compound 2.53 µM) was 0.823 and the relative viability (LXF-289; first compound 0.08 µM) was 0.934. For the same compound, the relative viability (LXF-289; first compound 0.253 µM) was 0.873, the relative viability (LXF-289; first compound 0.8 µM) was 0.924 and the relative viability (LXF-289; first compound 2.53 µM) was 1.01.
